{
  "source": "ChEMBL document CHEMBL1149066",
  "about": "“Esperamicin P, the tetrasulfide analog of esperamicin A1” (J Nat Prod, 1994)",
  "key": {"P388 [1]": {"test_system": "P388", "test": "Antitumor activity against mouse P388 cells in iv dosed in vivo system", "type": "functional, organism-based"}, "Enterococcus faecalis [2]": {"test_system": "Enterococcus faecalis", "test": "Antimicrobial activity against Enterococcus faecalis A20688 by serial twofold dilution method", "type": "functional"}, "HCT-116": {"test_system": "HCT-116", "test": "Cytotoxicity against human HCT116 cells", "type": "functional, cell-based"}, "Escherichia coli [3]": {"test_system": "Escherichia coli", "test": "Antimicrobial activity against Escherichia coli A15119 by serial twofold dilution method", "type": "functional"}, "Staphylococcus aureus [4]": {"test_system": "Staphylococcus aureus", "test": "Antimicrobial activity against Staphylococcus aureus A20698 by serial twofold dilution method", "type": "functional"}, "P388 [5]": {"test_system": "P388", "test": "In vivo antitumor activity against mouse P388 cells at 1 to 3 ug/kg, ip", "type": "functional"}, "Staphylococcus aureus [6]": {"test_system": "Staphylococcus aureus", "test": "Antimicrobial activity against Staphylococcus aureus A24407 by serial twofold dilution method", "type": "functional"}, "Klebsiella pneumoniae [7]": {"test_system": "Klebsiella pneumoniae", "test": "Antimicrobial activity against Klebsiella pneumoniae A20468 by serial twofold dilution method", "type": "functional"}, "[8]": {"test": "Cytotoxicity against human HCT/VP35 cells", "type": "functional, cell-based"}, "A549 [9]": {"test_system": "A549", "test": "Cytotoxicity against […]-resistant human A549 cells", "type": "functional, cell-based"}, "Enterococcus faecalis [10]": {"test_system": "Enterococcus faecalis", "test": "Antimicrobial activity against Enterococcus faecalis A25708 by serial twofold dilution method", "type": "functional"}, "Pseudomonas aeruginosa [11]": {"test_system": "Pseudomonas aeruginosa", "test": "Antimicrobial activity against Pseudomonas aeruginosa A20235 by serial twofold dilution method", "type": "functional"}, "Staphylococcus aureus [12]": {"test_system": "Staphylococcus aureus", "test": "Antimicrobial activity against Staphylococcus aureus A9537 by serial twofold dilution method", "type": "functional"}, "A549 [13]": {"test_system": "A549", "test": "Cytotoxicity against human A549 cells", "type": "functional, cell-based"}, "Proteus vulgaris": {"test_system": "Proteus vulgaris", "test": "Antimicrobial activity against Proteus vulgaris A21559 by serial twofold dilution method", "type": "functional"}, "B16": {"test_system": "B16", "test": "Cytotoxicity against mouse B16-PRIM cells", "type": "functional, cell-based"}, "Escherichia coli [14]": {"test_system": "Escherichia coli", "test": "Antimicrobial activity against Escherichia coli A9751 by serial twofold dilution method", "type": "functional"}, "Enterococcus faecalis [15]": {"test_system": "Enterococcus faecalis", "test": "Antimicrobial activity against Enterococcus faecalis A25707 by serial twofold dilution method", "type": "functional"}, "Escherichia coli [16]": {"test_system": "Escherichia coli", "test": "Antimicrobial activity against Escherichia coli A20697 by serial twofold dilution method", "type": "functional"}, "Pseudomonas aeruginosa [17]": {"test_system": "Pseudomonas aeruginosa", "test": "Antimicrobial activity against Pseudomonas aeruginosa A9843 by serial twofold dilution method", "type": "functional"}, "Klebsiella pneumoniae [18]": {"test_system": "Klebsiella pneumoniae", "test": "Antimicrobial activity against Klebsiella pneumoniae A9664 by serial twofold dilution method", "type": "functional"}},
  "note": "Active and inactive are the calls of the source. No cut-off for these calls is given here.",
  "data": [
    {"smiles": "C=C(OC)C(=O)Nc1cc(OC)c(OC)cc1C(=O)O[C@H]1C[C@H](O[C@@H]2C(=O)C(NC(=O)OC)=C3/C(=C\\CSSSC)[C@]2(O)C#C/C=C\\C#C[C@@H]3O[C@@H]2O[C@H](C)[C@@H](NO[C@H]3C[C@H](O)[C@H](SC)[C@@H](C)O3)[C@H](O)[C@H]2O[C@H]2C[C@H](OC)[C@@H](NC(C)C)CO2)O[C@@H](C)[C@H]1O", "values": [
      {"measurement": "Activity", "setting": "P388 [1]", "result": "Active"}
    ]},
    {"smiles": "C=C(OC)C(=O)Nc1cc(OC)c(OC)cc1C(=O)O[C@H]1C[C@H](O[C@@H]2C(=O)C(NC(=O)OC)=C3/C(=C\\CSSSSC)[C@]2(O)C#C/C=C\\C#C[C@@H]3O[C@@H]2O[C@H](C)[C@@H](NO[C@H]3C[C@H](O)[C@H](SC)[C@@H](C)O3)[C@H](O)[C@H]2O[C@H]2C[C@H](OC)[C@@H](NC(C)C)CO2)O[C@@H](C)[C@H]1O", "note": "[ESPERAMICIN P]", "values": [
      {"measurement": "MIC", "setting": "Enterococcus faecalis [2]", "result": 0.002, "unit": "µg/mL"},
      {"measurement": "IC50", "setting": "HCT-116", "result": "< 0.002", "unit": "µg/mL"},
      {"measurement": "MIC", "setting": "Escherichia coli [3]", "result": 0.25, "unit": "µg/mL"},
      {"measurement": "MIC", "setting": "Staphylococcus aureus [4]", "result": 0.001, "unit": "µg/mL"},
      {"measurement": "T/C", "setting": "P388 [5]", "result": 145, "unit": "%"},
      {"measurement": "MIC", "setting": "Staphylococcus aureus [6]", "result": 0.001, "unit": "µg/mL"},
      {"measurement": "MIC", "setting": "Klebsiella pneumoniae [7]", "result": 1, "unit": "µg/mL"},
      {"measurement": "IC50", "setting": "[8]", "result": "< 0.002", "unit": "µg/mL"},
      {"measurement": "IC50", "setting": "A549 [9]", "result": 0.01, "unit": "µg/mL"},
      {"measurement": "MIC", "setting": "Enterococcus faecalis [10]", "result": 0.002, "unit": "µg/mL"},
      {"measurement": "MIC", "setting": "Pseudomonas aeruginosa [11]", "result": 0.13, "unit": "µg/mL"},
      {"measurement": "MIC", "setting": "Staphylococcus aureus [12]", "result": 0.001, "unit": "µg/mL"},
      {"measurement": "Activity", "setting": "P388 [1]", "result": "inactive"},
      {"measurement": "IC50", "setting": "A549 [13]", "result": 0.01, "unit": "µg/mL"},
      {"measurement": "MIC", "setting": "Proteus vulgaris", "result": 0.13, "unit": "µg/mL"},
      {"measurement": "IC50", "setting": "B16", "result": "> 0.002", "unit": "µg/mL"},
      {"measurement": "MIC", "setting": "Escherichia coli [14]", "result": 0.016, "unit": "µg/mL"},
      {"measurement": "MIC", "setting": "Enterococcus faecalis [15]", "result": 0.002, "unit": "µg/mL"},
      {"measurement": "MIC", "setting": "Escherichia coli [16]", "result": 0.25, "unit": "µg/mL"},
      {"measurement": "MIC", "setting": "Pseudomonas aeruginosa [17]", "result": 0.25, "unit": "µg/mL"},
      {"measurement": "MIC", "setting": "Klebsiella pneumoniae [18]", "result": 1, "unit": "µg/mL"}
    ]}
  ]
}
